Results published in patent publication US20240228482A1, “COMPOUNDS, COMPOSITIONS AND METHODS OF TREATING CANCER” (HOTSPOT THERAPEUTICS, INC., priority 2021, published 2024).

Target: T1, CBL-B (Homo sapiens, UniProt Q13191)
T1 construct: GST
Test: CBL-B TR-FRET IC50 screening (E1/E2 ubiquitination, Biotin-Ubiquitin, Anti GST-Tb donor / Streptavidin-d2 acceptor)
Format: biochemical
Details: CBL-B 10 nM final; 11-point titration from 100 uM; binned A-F; read-out: CBL-B TR-FRET activity IC50

T1 sequence (Q13191 whole entry): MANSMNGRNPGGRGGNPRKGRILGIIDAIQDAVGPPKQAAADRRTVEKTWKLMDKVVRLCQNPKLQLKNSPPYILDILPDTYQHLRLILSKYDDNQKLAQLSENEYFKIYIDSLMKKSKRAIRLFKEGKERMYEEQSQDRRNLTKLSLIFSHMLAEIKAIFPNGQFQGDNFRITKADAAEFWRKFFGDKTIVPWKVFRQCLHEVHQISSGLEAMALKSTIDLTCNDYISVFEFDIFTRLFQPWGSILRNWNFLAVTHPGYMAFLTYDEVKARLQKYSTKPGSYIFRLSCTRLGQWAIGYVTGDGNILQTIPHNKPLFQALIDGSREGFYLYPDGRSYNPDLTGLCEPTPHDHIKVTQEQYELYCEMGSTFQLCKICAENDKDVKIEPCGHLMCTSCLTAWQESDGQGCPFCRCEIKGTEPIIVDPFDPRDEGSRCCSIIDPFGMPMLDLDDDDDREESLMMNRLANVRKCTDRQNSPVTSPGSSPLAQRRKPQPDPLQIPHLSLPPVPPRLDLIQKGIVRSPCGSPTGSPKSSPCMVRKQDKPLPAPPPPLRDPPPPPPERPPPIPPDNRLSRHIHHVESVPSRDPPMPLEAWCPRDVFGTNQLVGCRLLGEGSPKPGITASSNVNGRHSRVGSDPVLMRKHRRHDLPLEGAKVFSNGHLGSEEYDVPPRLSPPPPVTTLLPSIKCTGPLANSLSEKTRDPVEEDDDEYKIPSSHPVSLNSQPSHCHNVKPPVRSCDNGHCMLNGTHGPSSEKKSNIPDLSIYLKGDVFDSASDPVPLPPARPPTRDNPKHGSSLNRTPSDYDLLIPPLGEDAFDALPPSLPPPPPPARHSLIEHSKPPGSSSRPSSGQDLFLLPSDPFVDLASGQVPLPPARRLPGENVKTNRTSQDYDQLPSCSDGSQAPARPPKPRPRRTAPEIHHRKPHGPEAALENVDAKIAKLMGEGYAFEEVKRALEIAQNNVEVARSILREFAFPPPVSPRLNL

SMILES | IC50 [nM]
[2H]C([2H])([2H])n1cnnc1CC1(c2cccc(-n3cc4c(C(F)(F)F)cc(CN5CCC[C@H](C)C5)cn4c3=O)c2)COC1 [Compound 198] | < 100
CO[C@@H]1CCCN(Cc2cc(C(F)(F)F)c3cn(-c4cccc([C@H](c5nncn5C)C5CCC5)c4)c(=O)n3c2)CC1 (single isomer, unassigned) [Compound 264] | < 100
C[C@H]1CCCN(Cc2cc(C(F)(F)F)c3cn(-c4cccc([C@@H](c5nncs5)C5CCC5)c4)c(=O)n3c2)C1 (single isomer, unassigned) [Compound 203] | 301 to 1000
CN1CCN(Cc2cc(C(F)(F)F)c3cn(-c4cccc([C@@H](c5nncn5C)C5CCC5)c4)c(=O)n3c2)CC1=O [Compound 364_P1] | 301 to 1000
[2H]C([2H])([2H])n1cnnc1CC1(c2cccc(-n3cc4c(C(F)(F)F)cc([C@H](C)N5CCO[C@H](C)C5)cn4c3=O)c2)COC1 [Compound 287_P1] | < 100
[2H]C([2H])([2H])n1cnnc1CC1(c2cccc(-n3cc4c(C(F)(F)F)cc(Br)cn4c3=O)c2)COC1 [Compound 145] | 100 to 300
Cn1cnnc1[C@@H](c1cccc(-n2cc3c(C(F)(F)F)cc(CN4CC[C@H](C(F)(F)F)C4)cn3c2=O)c1)C1CCC1 [Compound 284] | 301 to 1000
Cn1cnnc1[C@@H](c1cccc(-n2cc3c(C(F)(F)F)cc(CN4CCS(=O)(=O)CC4)cn3c2=O)c1)C1CCC1 [Compound 378] | < 100
Cn1cnnc1CC1(c2cccc(-n3cc4c(Cl)cc(CN5CC[C@H](F)C5)cn4c3=O)c2)COC1 [Compound 66] | < 100
CC1CN(Cc2cc(C(F)(F)F)c3cn(-c4cccc([C@@H](c5nncn5C)C5CCC5)c4)c(=O)n3c2)CCC1(F)F (single isomer, unassigned) [Compound 169] | 3000 to 10000
C[C@H]1CCCN(Cc2cc(C(F)(F)F)c3cn(-c4cccc([C@H](c5nncn5C)N5CCC5)c4)c(=O)n3c2)C1 (single isomer, unassigned) [Compound 367] | 3000 to 10000
COC1(CNCc2cc(C(F)(F)F)c3cn(-c4cccc(C5(Cc6nncn6C)COC5)c4)c(=O)n3c2)CC1 [Compound 252] | < 100
CN1CC2CCC(C1)N2c1cc(C(F)(F)F)c2cn(-c3cccc([C@H](c4nncn4C)C4CCC4)c3)c(=O)n2c1 [Compound 373] | 100 to 300
Cc1c[nH]nc1[C@@H](c1cccc(-n2cc3c(C(F)(F)F)cc(CN4CCO[C@H](C)C4)cn3c2=O)c1)C1CCC1 [Compound 221] | 100 to 300
C[C@@H]1CCCCN1Cc1cc(C(F)(F)F)c2cn(-c3cccc([C@@H](c4nncn4C)C4CCC4)c3)c(=O)n2c1 [Compound 363_P1] | > 10000
C[C@H]1CCCN(Cc2cc(C(F)(F)F)c3cn(-c4cccc(N(c5nncn5C)C5COC5)c4)c(=O)n3c2)C1 [Compound 334] | < 100
[2H]C([2H])([2H])n1cnnc1[C@@H](c1cccc(-n2cc3c(C(F)(F)F)cc(CN4CCO[C@H](C)C4)cn3c2=O)c1)C1CCC1 (single isomer, unassigned) [Compound 137] | < 100
Cn1cnnc1[C@]1(c2cccc(-n3cc4c(C(F)(F)F)cc(CN5CCc6ncsc6C5)cn4c3=O)c2)C[C@H](C)C1 (single isomer, unassigned) [Compound 308] | < 100

SMILES | IC50 [nM]
CO[C@H](C)CNCc1cc(C(F)(F)F)c2cn(-c3cccc(C4(Cc5nncn5C)COC4)c3)c(=O)n2c1 [Compound 266] | < 100
Cn1cnnc1CC1(c2cccc(-n3cc4c(C(F)(F)F)cc(CCC(=O)O)cn4c3=O)c2)COC1 [Compound 92] | 301 to 1000
Cc1cn(C)nc1CC1(c2cccc(-n3cc4c(C(F)(F)F)cc(CN5CCC[C@H](C)C5)cn4c3=O)c2)COC1 [Compound 197] | 3000 to 10000
COc1cc(-n2cc3c(C(F)(F)F)cc(CN4CC5(CC5)C4)cn3c2=O)cc(C2(Cc3nncn3C)COC2)c1 [Compound 110] | < 100
Cn1cnnc1[C@@H](c1cccc(-n2cc3c(C(F)(F)F)cc(CN4CCC(C)(F)CC4)cn3c2=O)c1)C1CCC1 (single isomer, unassigned) [Compound 161] | < 100
Cn1cnnc1CC(c1ccccc1)c1cccc(-n2cc3c(C(F)(F)F)cccn3c2=O)c1 (centres unmarked) [Compound 148] | > 10000
Cn1cnnc1CC1(c2cccc(-n3cc4c(C(F)(F)F)cccn4c3=O)c2)COC1 [Compound 9] | 100 to 300
C[C@H]1CCCN(Cc2cc(C(F)(F)F)c3cn(-c4cc(F)cc([C@@H](c5nncn5C)C5CCC5)c4)c(=O)n3c2)C1 (single isomer, unassigned) [Compound 242] | > 10000
C[C@@H]1CN(Cc2cc(C(F)(F)F)c3cn(-c4cccc([C@@H](c5nncs5)C5CCC5)c4)c(=O)n3c2)CCO1 [Compound 300] | 1000 to 3000
C[C@H](c1cc(C(F)(F)F)c2cn(-c3cccc(C4([C@H](F)c5nncn5C)COC4)c3)c(=O)n2c1)N1CCC2(CC2)C1 [Compound 57] | < 100
C[C@@H]1CN(Cc2cc(C(F)(F)F)c3cn(-c4cccc(C5(c6nncn6C)CC6(CC6)C5)c4)c(=O)n3c2)CCO1 [Compound 116] | < 100
Cn1cnnc1[C@@H](c1cccc(-n2cc3c(C(F)(F)F)cc(CN4CC(Oc5ccc(Cl)cc5)C4)cn3c2=O)c1)C1CCC1 [Compound 338] | < 100
[2H]C([2H])([2H])n1cnnc1[C@@H](c1cccc(-n2cc3c(C(F)(F)F)cc(CN4CCC[C@H](C)C4)cn3c2=O)c1)C1CCC1 (single isomer, unassigned) [Compound 135] | < 100
Cc1c[nH]nc1[C@H](c1cccc(-n2cc3c(C(F)(F)F)cc(CN4CCO[C@H](C)C4)cn3c2=O)c1)C1CCC1 [Compound 220] | 3000 to 10000
CC(Cc1nncn1C)c1ccc(F)c(-n2cc3c(C(F)(F)F)cccn3c2=O)c1 (centres unmarked) [Compound 52] | 3000 to 10000
CO[C@@H]1CCCN(Cc2cc(C(F)(F)F)c3cn(-c4cccc([C@H](c5nncn5C)C5CCC5)c4)c(=O)n3c2)C1 [Compound 251] | < 100
C[C@H]1CCCN(Cc2cc(C(F)(F)F)c3cn(-c4cccc([C@@H](c5nc(C#N)cs5)C5CCC5)c4)c(=O)n3c2)C1 (single isomer, unassigned) [Compound 372] | > 10000

Same assay, conditions: second part of Table 2 (head 'Patent Cmpd No / Updated Activity'); same CBL-B TR-FRET IC50 bins A-F; read-out: Updated Activity

SMILES | IC50 [nM]
CO[C@H]1C[C@H]([C@@H](c2cccc(-n3cc4c(C(F)(F)F)cc(CN5CCC[C@H](C)C5)cn4c3=O)c2)c2nncn2C)C1 (single isomer, unassigned) [Compound 553] | < 100
COC[C@@H]1CCN1Cc1cc(C(F)(F)F)c2cn(-c3cccc([C@H](c4nncn4C)C4CCC4)c3)c(=O)n2c1 [Compound 507] | < 100
C[C@H]1CCCN(Cc2cc(C(F)(F)F)c3cn(-c4cncc([C@H](c5nncn5C)C5CCC5)c4)c(=O)n3c2)C1 [Compound 628_P2] | 3000 to 10000
[2H]C([2H])(c1cc(C(F)(F)F)c2cn(-c3cccc([C@H](c4nncn4C)C4CCC4)c3)c(=O)n2c1)N1CCO[C@H](C)C1 [Compound 527] | < 100
COCCN(Cc1cc(C(F)(F)F)c2cn(-c3cccc([C@H](c4nncn4C)C4CCC4)c3)c(=O)n2c1)S(C)(=O)=O [Compound 593] | < 100
C[C@@H]1CN(Cc2cc(C(F)(F)F)c3cn(-c4cccc([C@@H](c5nncn5C)C5CC5)c4)c(=O)n3c2)CCO1 [Compound 612_P1] | > 10000
C[C@H]1CCCN(Cc2cc(C(F)(F)F)c3cn(-c4cccc([C@H](c5nncn5C5CC5)C5CCC5)c4)c(=O)n3c2)C1 (single isomer, unassigned) [Compound 424] | > 10000
C[C@H]1CCCN(Cc2cc(C(F)(F)F)c3cn(-c4cccc([C@@H](c5nncn5C)[C@H]5C[C@@H](O)C5)c4)c(=O)n3c2)C1 (single isomer, unassigned) [Compound 436] | > 10000
Cn1cnnc1[C@@H](c1cccc(-n2cc3c(C(F)(F)F)cc(C(=O)N4CCC5(CC5)C4)cn3c2=O)c1)C1CCC1 [Compound 429] | 100 to 300
Cn1cnnc1[C@@H](c1cccc(-n2cc3c(C(F)(F)F)cc(CN4CCC5(CC4)COC5)cn3c2=O)c1)C1CCC1 [Compound 525] | < 100
COCc1nc([C@@H](c2cccc(-n3cc4c(C(F)(F)F)cc(CN5CCC[C@H](C)C5)cn4c3=O)c2)C2CCC2)c(C)s1 (single isomer, unassigned) [Compound 385] | > 10000
C[C@H]1CCCN(Cc2cc(C(F)(F)F)c3cn(-c4cccc([C@]5(c6nncn6C)C[C@@](C)(O)C5)c4)c(=O)n3c2)C1 (single isomer, unassigned) [Compound 417] | < 100
C[C@@H](c1cc(C(F)(F)F)c2cn(-c3cccc([C@H](c4nncn4C)C4CCC4)c3)c(=O)n2c1)N1CC[C@H](F)C1 (single isomer, unassigned) [Compound 486] | < 100
C[C@@H]1CN(Cc2cc(C(F)(F)F)c3cn(-c4cccc([C@H](c5nncn5C)C5CC5)c4)c(=O)n3c2)CCO1 [Compound 612_P2] | < 100
CCn1cnnc1[C@@H](c1cccc(-n2cc3c(C(F)(F)F)cc(CN4CCC[C@H](C)C4)cn3c2=O)c1)C1CCC1 (single isomer, unassigned) [Compound 423] | > 10000
Cn1cnnc1[C@@H](c1cccc(-n2cc3c(C(F)(F)F)cc(CN4CCC(C)(F)CC4)cn3c2=O)c1)C1COC1 [Compound 413] | < 100
CC(=O)N1CC([C@H](c2cccc(-n3cc4c(C(F)(F)F)cc(CN5CCC[C@H](C)C5)cn4c3=O)c2)c2nncn2C)C1 [Compound 434_P2] | 1000 to 3000
CC(=O)N1CCC[C@@H](c2cc(C(F)(F)F)c3cn(-c4cccc([C@H](c5nncn5C)C5CCC5)c4)c(=O)n3c2)C1 (single isomer, unassigned) [Compound 397] | 100 to 300
Cn1cnnc1[C@H](c1cc(-c2cnn[nH]2)cc(-n2cc3c(C(F)(F)F)cccn3c2=O)c1)C1CCC1 [Compound 535] | 301 to 1000
Cn1cnnc1[C@@H](c1cc(C#N)cc(-n2cc3c(C(F)(F)F)cc(CN4CC5(CC5)C4)cn3c2=O)c1)C1CCC1 (single isomer, unassigned) [Compound 557] | > 10000
Cn1cnnc1[C@H](c1cc(-c2cnsc2)cc(-n2cc3c(C(F)(F)F)cccn3c2=O)c1)C1CCC1 (single isomer, unassigned) [Compound 456] | > 10000
